Laboratory results: patent publication EP4782453A1 (Beyang Therapeutics Co., Ltd., priority 2023, dated 2025)
pIC50: −log10 of the molar value. Like-named read-outs stand apart in the source and are kept apart here.

Legend:
Menin-MLL = target: T1, Menin-MLL (Homo sapiens, UniProt O00255); assay: Inhibitory activity against Menin-MLL binding (fluorescence polarization); settings: 150 nM His-Menin, 15 nM FITC-MLL, 25°C for 60 min
T1 construct: His-Menin (M1-L615 end); purchased BIORTUS BP9210
T1 sequence (O00255 1-615 isoform O00255-1): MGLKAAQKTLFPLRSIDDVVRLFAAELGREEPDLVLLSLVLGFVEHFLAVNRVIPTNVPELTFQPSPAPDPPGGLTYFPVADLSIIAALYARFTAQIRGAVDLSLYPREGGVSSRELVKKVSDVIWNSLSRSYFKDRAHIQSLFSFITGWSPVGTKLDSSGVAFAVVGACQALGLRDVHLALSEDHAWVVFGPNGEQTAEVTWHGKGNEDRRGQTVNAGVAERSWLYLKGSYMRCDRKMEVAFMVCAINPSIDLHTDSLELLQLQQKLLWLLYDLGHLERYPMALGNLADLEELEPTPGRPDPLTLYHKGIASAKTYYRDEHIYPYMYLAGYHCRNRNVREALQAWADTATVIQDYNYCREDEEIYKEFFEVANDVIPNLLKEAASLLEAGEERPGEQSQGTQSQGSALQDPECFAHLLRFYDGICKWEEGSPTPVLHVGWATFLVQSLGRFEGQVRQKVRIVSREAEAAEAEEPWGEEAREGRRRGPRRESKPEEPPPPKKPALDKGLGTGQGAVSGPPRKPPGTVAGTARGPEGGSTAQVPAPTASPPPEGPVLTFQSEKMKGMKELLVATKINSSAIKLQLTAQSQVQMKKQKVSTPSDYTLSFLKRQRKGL
Method in brief: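 Fluorescence polarization competition: compound and 150 nM His-tagged menin (residues M1-L615) sit 15 min at 25 °C in pH 7.5 HEPES buffer with NaCl, DTT and BSA; 15 nM FITC-labelled MLL peptide then binds for 60 min. IC50 fitted sigmoidally from mP values, duplicate wells.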

[1] = test system: MV-4-11 (carrying MLL-AF4); assay: Inhibition of proliferation of human tumor cells (Alamar Blue, 7 days), MV-4-11; type: cell-based; settings: Homo sapiens, MV4-11, 168 h, MV-4-11 cells (carrying MLL-AF4), method calls the value GI50
Excerpt: Experimental Example 2: Evaluation of Inhibitory Activity of Compounds Against Proliferation of Human Tumor Cells
• Human acute lymphoblastic leukemia cells MV-4-11, purchased from American Type Culture Collection, Catalog Number: CRL-9591; • Human acute myeloid leukemia cells MOLM-13, purchased from COBIOER BIOSCIENCES CO., LTD, Catalog Number: CBP60678; • Human acute myeloid leukemia cells KG-1a, purchased from American Type Culture Collection, Catalog Number: CCL-246.1; • Inverted Microscope, purchased from Olympus Tokyo; • Countess™ Automated Cell Counter, purchased from Invitrogen, Model: C10281; and • Multilabel Reader, purchased from Bio-Tek, Model: Synergy HT.
MV-4-11 cells were cultured in an IMDM medium containing 10% fetal bovine serum, KG-a cells were cultured in an IMDM medium containing 20% fetal bovine serum, or MOLM-13 cells were cultured in an RPMI-1640 medium containing 20% fetal bovine serum, each supplemented with 100 U·mL^-1 penicillin and 100 µg·mL^-1 streptomycin. These cells were cultured at 37°C with 5% CO2. The suspensions of individual cell lines were prepared in their respective media and seeded into 96-well plates at a density of 4,000 cells/well for MV-4-11 and MOLM-13 cells, or 3,000 cells/well for KG-1a cells. On the day of the experiment, a compound stock solution was diluted in a 3-fold or 4-fold gradient using DMSO. Each gradient-diluted stock solution was then further diluted 250-fold with a complete medium to prepare a series of working solutions at different concentrations. Subsequently, 100 µL of working solution (containing a 2-fold concentration series of the test compound) was added to each well, with duplicate wells set up for each concentration.
Seven days after compound addition (on Day 7), an Alamar Blue assay reagent (MCE, HY-111391 / CS-0040317) was added to measure the fluorescence intensity in each well. Wells containing the cells in the growth medium supplemented with 0.1% DMSO (Day 7) served as high-read control wells. The readouts from the wells containing the cells in the growth medium supplemented with 0.1% DMSO on the day of compound addition (Day 0) served as low-reading control well. GraphPad Prism software was used to calculate the concentration required to inhibit 50% of cell proliferation (GI50), which serves as a cell proliferation inhibition activity index.

[2] = test system: MOLM-13 (carrying MLL-AF9); assay: Inhibition of proliferation of human tumor cells (Alamar Blue, 7 days), MOLM-13; type: cell-based; settings: Homo sapiens, MOLM-13 cells (carrying MLL-AF9), method calls the value GI50
Method in brief: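 GI50 from Alamar Blue fluorescence after 7-day compound exposure, duplicate wells, using Day-0 and Day-7 0.1% DMSO wells as low and high controls. MV-4-11 in IMDM/10% FBS and MOLM-13 in RPMI-1640/20% FBS at 4,000 cells/well; KG-1a in IMDM/20% FBS at 3,000 cells/well.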

[3] = fluorescence polarization, read-out: Menin-MLL IC50
[4] = Menin-MLL IC50, fluorescence polarization

| Structure (SMILES) | pIC50 (Menin-MLL; [3]) | pIC50 [1] | pIC50 ([2]; 168 h) | pIC50 (Menin-MLL; [4]) | pIC50 ([2]; MOLM-13, 168 h) |
| --- | --- | --- | --- | --- | --- |
| Cc1nc(F)c2c(-c3ccc(F)cc3C(=O)N3[C@H](C)COC[C@H]3C)cc(C3CN(C[C@H]4CC[C@H](n5cncn5)CC4)C3)cn12 [Example 213, (3R,5R)-4-{5-fluoro-2-[1-fluoro-3-methyl-6-(1-{[(1r,4r)-4-(1H-1,2,4-triazol-1-yl)cyclohexyl]methyl}azacyclobutan-3-yl)imidazo[1,5-a]pyridin-8yl]benzoyl}-3,5-dimethylmorpholine] | – | 7.89 | – | 7.96 | 7.54 |
| CCS(=O)(=O)N[C@H]1CC[C@H](CN2CC[C@@H](c3cc(-c4ccc(F)cc4C(=O)N(CC(F)F)C(C)C)c4cnc(C)n4c3)C2)CC1 [Example 164, N-(2,2-difluoroethyl)-5-fluoro-2-{3-methyl-6-[(3S)-1-{[(1r,4r)-4-ethanesulfonamidocyclohexyl]methyl}pyrrolidin-3-yl]imidazo[1,5-a]pyridin-8-yl]-N-(isopropyl)benzamide] | – | 8.66 | – | 8.22 | 8.21 |
| CNC(=O)N1CCC(CN2CC(c3cc(-c4ccc(F)cc4C(=O)N4[C@H](C)COC[C@H]4C)c4c(F)nc(C)n4c3)C2)CC1 [Example 222] | 8.15 | 8.36 | 8.05 | – | – |
| Cc1cncc2c(-c3ccc(F)cc3C(=O)N3[C@H](C)COC[C@H]3C)cc(CC3CN(CC4CCOCC4)C3)n12 [Example 230] | 8.70 | 9.00 | – | – | 8.54 |
| COC1CCN(CCC[C@H](C(C)C)N2CC(c3cc(-c4ccc(F)cc4C(=O)N4CCOC[C@H]4C)c4cnn(C)c4c3)C2)CC1 [Example 181-2, 4-{4-fluoro-2-[(3R)-3-methylmorpholin-4-carbonyl]phenyl}-6-{1-[(3R)-6-(4-methoxypiperidin-1-yl)-2-methylhexan-3-yl]azacyclobutan-3-yl}-1-methyl-1H-indazole] | 7.87 | 8.10 | 7.41 | – | – |

Continued, in another order:

| pIC50 (Menin-MLL; [3]) | pIC50 [1] | pIC50 ([2]; 168 h) | Structure (SMILES) | pIC50 (Menin-MLL; [4]) | pIC50 ([2]; MOLM-13, 168 h) |
| --- | --- | --- | --- | --- | --- |
| 8.42 | 7.74 | 7.37 | CCN(C(=O)c1cc(F)ccc1-c1cc(C2CN([C@H](CCCN3CCN(C)CC3)C(C)C)C2)cc2c1cnn2C)C(C)C [Example 420] | – | – |
| 7.47 | 7.43 | 7.08 | Cc1nc(F)c2c(-c3ccc(F)cc3C(=O)N3CCOC[C@H]3C)cc(C3CN(CC4CCN(C(=O)C5CC5)CC4)C3)cn12 [Example 269] | – | – |
| 7.64 | 7.66 | 7.49 | Cc1nc(F)c2c(-c3ccc(F)cc3C(=O)N3[C@H](C)COC[C@H]3C)cc(C3CN(CC4CCN(C(=O)C5COC5)CC4)C3)cn12 [Example 216] | – | – |
| 8.30 | 8.12 | 7.92 | Cc1nc(F)c2c(-c3ccc(F)cc3C(=O)N3[C@H](C)COC[C@H]3C)cc(C3CN(CC4CCN(C(=O)C5(O)CC5)CC4)C3)cn12 [Example 214] | – | – |
| 7.63 | 7.38 | 6.89 | C=C1C[C@@H]2CC[C@H]1[C@@H](C(=O)N1CC(c3cc(-c4ccc(F)cc4C(=O)N(CC(F)F)C(C)C)c4cnc(C)n4c3)C1)N2 [Example 121, N-(2,2-difluoroethyl)-5-fluoro-2-(3-methyl-6-{1-[(1S,3S,4R)-5-methylene-2-azabicyclo[2.2.2]octan-3-carbonyl]azacyclobutan-3-yl}imidazo[1,5-a]pyridin-8-yl)-N-(isopropyl)benzamide] | – | – |
| 7.77 | 7.89 | 7.19 | Cc1nc(F)c2c(-c3ccc(F)cc3C(=O)N3CCOC[C@H]3C)cc(C3CN(C(CC[C@H]4CNCCO4)C(C)C)C3)cn12 (stereo partly drawn) [Example 244, (3R)-4-{5-fluoro-2-[1-fluoro-3-methyl-6-(1-{4-methyl-1-[(2S)-morpholin-2-yl]pentan-3-yl}azacyclobutan-3-yl)imidazo[1,5-a]pyridin-8yl]benzoyl}-3-methylmorpholine] | – | – |
